Measurements from patent publication US20260193219A1, “TRIAZINE DERIVATIVES FOR TREATING DISEASES RELATING TO NEUROTROPHINS” (AlzeCure Pharma AB, priority 2020, published 2026).

Legend:
TrkA = target: T1, TrkA (Homo sapiens, UniProt P04629); assay: In vitro Trk receptor modulation assay (Enzyme Fragment Complementation), U2OS cells over-expressing TrkA; type: cell-based; settings: compound pre-mixed with ligand (NGF), final 10 ng/mL, 3 hours, modulator mode
T1 construct: expressed in transfected cells; host or cells: U2OS
T1 sequence (P04629 33-796): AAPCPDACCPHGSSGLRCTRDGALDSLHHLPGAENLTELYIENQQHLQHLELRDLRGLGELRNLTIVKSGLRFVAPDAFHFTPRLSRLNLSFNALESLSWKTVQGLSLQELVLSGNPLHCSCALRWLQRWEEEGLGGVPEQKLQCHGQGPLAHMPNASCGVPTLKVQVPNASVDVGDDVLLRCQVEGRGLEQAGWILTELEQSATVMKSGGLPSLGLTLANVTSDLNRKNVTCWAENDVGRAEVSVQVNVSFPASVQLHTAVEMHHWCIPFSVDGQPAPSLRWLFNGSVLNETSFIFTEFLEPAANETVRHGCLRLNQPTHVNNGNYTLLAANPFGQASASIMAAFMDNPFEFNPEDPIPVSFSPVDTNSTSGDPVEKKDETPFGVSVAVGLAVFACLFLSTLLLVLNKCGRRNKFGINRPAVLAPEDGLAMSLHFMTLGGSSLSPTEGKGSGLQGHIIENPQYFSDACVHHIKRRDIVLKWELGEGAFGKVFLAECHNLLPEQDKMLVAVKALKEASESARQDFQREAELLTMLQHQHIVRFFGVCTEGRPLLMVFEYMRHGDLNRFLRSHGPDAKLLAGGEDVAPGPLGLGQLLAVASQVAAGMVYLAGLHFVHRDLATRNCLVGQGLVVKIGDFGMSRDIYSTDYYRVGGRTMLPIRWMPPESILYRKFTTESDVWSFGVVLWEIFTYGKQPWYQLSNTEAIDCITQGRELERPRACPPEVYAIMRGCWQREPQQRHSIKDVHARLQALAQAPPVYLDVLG
From the text: (§1) A high throughput cell-based screen was used to identify positive modulators of TrkA and TrkB. The screen involves the use of cell-based assay overexpressing TrkA, or TrkB. The purpose of the assay is to identify compounds that modulate neurotrophin signalling (Forsell et al 2012). The assay can be used in inhibitor mode using a high concentration of ligand, in modulator mode using an intermediate concentration and in agonist mode using a low concentration of ligand.
(§2) The assay uses Enzyme Fragment Complementation (EFC) technique, which is a proximity-based assay. Briefly, cells used in this assay over-express two fusion proteins, i.e. the receptor, which can be one of TrkA or TrkB fused to a small peptide of beta-galactosidase and an adaptor protein, i.e. SHC1 (or any other Trk-adaptor protein) fused to the major part of beta-galactosidase. […] The proximity between the small activating peptide on the receptor and the major part of beta-galactosidase on the adaptor protein leads to an active beta-galactosidase enzyme. The activation of the receptor is quantified by measuring the amount of active beta-galactosidase by its conversion of a non-luminescent substrate into a luminescent product.
(§3) U2OS-cells, over-expressing TrkA or TrkB, were plated in 96- or 384-well plates and incubated overnight. On the following day, test compound was pre-mixed with ligand (NGF) and the ligand-compound mixture is then added to the cells to yield a final ligand concentration of 10 ng/mL. After 3 hours of incubation at room temperature, the incubation is stopped by the addition of a beta-galactosidase substrate mixture containing detergents. The substrate mixture is incubated for 60 minutes at ambient temperature. The luminescence is thereafter read by the use of a plate reader.

TrkB = target: T2, TrkB (Homo sapiens, UniProt Q16620); assay: In vitro Trk receptor modulation assay (Enzyme Fragment Complementation), U2OS cells over-expressing TrkB; type: cell-based; settings: compound pre-mixed with ligand (NGF), final 10 ng/mL, 3 hours, modulator mode
T2 construct: expressed in transfected cells; host or cells: U2OS
T2 sequence (Q16620 32-822): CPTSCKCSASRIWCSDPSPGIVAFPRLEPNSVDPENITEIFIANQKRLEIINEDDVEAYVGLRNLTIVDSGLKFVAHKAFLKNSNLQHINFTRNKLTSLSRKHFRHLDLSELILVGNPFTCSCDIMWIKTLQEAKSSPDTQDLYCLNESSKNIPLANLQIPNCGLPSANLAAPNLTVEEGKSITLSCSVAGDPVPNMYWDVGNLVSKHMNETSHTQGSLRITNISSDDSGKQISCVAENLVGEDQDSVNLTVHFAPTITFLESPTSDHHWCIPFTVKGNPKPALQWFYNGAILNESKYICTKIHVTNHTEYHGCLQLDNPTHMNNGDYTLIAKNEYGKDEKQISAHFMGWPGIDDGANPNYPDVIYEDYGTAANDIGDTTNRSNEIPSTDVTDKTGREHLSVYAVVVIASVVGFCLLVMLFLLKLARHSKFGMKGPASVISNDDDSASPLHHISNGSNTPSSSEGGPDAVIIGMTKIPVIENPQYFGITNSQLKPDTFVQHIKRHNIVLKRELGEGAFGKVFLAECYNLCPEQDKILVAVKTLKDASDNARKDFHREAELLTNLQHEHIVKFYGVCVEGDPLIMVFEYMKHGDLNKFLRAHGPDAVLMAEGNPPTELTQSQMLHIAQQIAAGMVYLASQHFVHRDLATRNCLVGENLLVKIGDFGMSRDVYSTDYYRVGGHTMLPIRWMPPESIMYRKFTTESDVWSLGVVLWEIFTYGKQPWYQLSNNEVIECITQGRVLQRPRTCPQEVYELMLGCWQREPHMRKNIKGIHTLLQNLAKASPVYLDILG
From the text: as §1, §2, §3

[1] = Human liver microsomal stability; type: in vitro ADME; settings: human liver microsomes 0.5 mg/mL, 3 μM compound, NADPH, 37° C.
Experimental: A 10 mM stock solution (in DMSO) was prepared for each compound. From the intermediate stock solution of 2 mM, a working solution of 0.5 mM was prepared by diluting the compound in Acetonitrile:water (50:50). The compound (1.8 μL of working solution) was spiked in 0.1 M potassium phosphate buffer (260.7 μL), pH 7.4 at a concentration of 3 μM (0.1% DMSO). Following this, human liver microsomes (pooled, Invitrogen, #HMMCPL) (7.5 μL; final protein conc. 0.5 mg/mL) were added. The aforementioned sample was incubated at 37° C. for 5 min. Subsequently, 30 μL of 10 mM NADPH prepared in 0.1 M potassium phosphate buffer was added (as a co-factor) to initiate the reaction. The samples were then incubated at 37° C. for 0, 20, 40, 60 and 120 min.
At each time point (0, 20, 40, 60 and 120 min), 40 μL of the samples were withdrawn and reactions were stopped using 360 μL chilled acetonitrile or methanol containing suitable internal standard (Carbamazepine). The samples were centrifuged and the supernatants was analyzed in duplicate by LC-MS/MS. The percent compound remaining at each time point was calculated with respect to that of the 0 min sample. Control samples were run without NADPH for initial and final time point and blank samples was prepared using DMSO (without the test compound).
For comparison, the experiment was also performed with known Trk receptor signalling modulator 1-methyl-3-[3-methyl-4-(4-trifluoromethanesulfonylphenoxy)phenyl]-1,3,5-triazinane-2,4,6-trione) (ponazuril). Ponazuril is metabolized very slowly in vivo and this prolonged exposure creates an increased risk of side effects if the compound is administered systemically. This causes significant challenges to the development of the compound as a systemic drug.

Row | Structure (SMILES) | EC50 (TrkA) [nM] | EC50 (TrkB) [nM] | % of parent compound metabolized after 120 min [1] [%]
1 | CSc1cc(-n2c(=O)[nH]c(=O)n(-c3ccccc3)c2=O)ccc1Oc1ccccc1 [Example 13, 1-[3-(methylsulfanyl)-4-phenoxyphenyl]-3-phenyl-1,3,5-triazinane-2,4,6-trione] | 640 | 380 | 4.7
2 | Cc1cc2cccc(-n3c(=O)[nH]c(=O)n(-c4ccc(Oc5ccccc5)c(C)c4)c3=O)c2o1 [Example 4, 1-(2-methyl-1-benzofuran-7-yl)-3-(3-methyl-4-phenoxyphenyl)-1,3,5-triazinane-2,4,6-trione] | 300 | 270 | 37.7
3 | CCc1cc(-n2c(=O)[nH]c(=O)n(-c3ccccc3)c2=O)ccc1Oc1ccccc1 [Example 6, 1-(3-ethyl-4-phenoxyphenyl)-3-phenyl-1,3,5-triazinane-2,4,6-trione] | 210 | 220 | 
4 | COc1ccc(-n2c(=O)[nH]c(=O)n(-c3ccc(Oc4ccccc4)c(C)c3)c2=O)cc1 [Example 8, 1-(4-methoxyphenyl)-3-(3-methyl-4-phenoxyphenyl)-1,3,5-triazinane-2,4,6-trione] | 350 | 230 | 
5 | Cc1cc(-n2c(=O)[nH]c(=O)n(C)c2=O)ccc1Oc1ccc(S(=O)(=O)C(F)(F)F)cc1 [ponazuril, 1-methyl-3-[3-methyl-4-(4-trifluoromethanesulfonylphenoxy)phenyl]-1,3,5-triazinane-2,4,6-trione, reference compound] |  |  | 3.1
6 | CSc1cc(-n2c(=O)[nH]c(=O)n(-c3cccc(C)c3)c2=O)ccc1Oc1ccccc1 [Example 14, 1-(3-methylphenyl)-3-[3-(methylsulfanyl)-4-phenoxyphenyl]-1,3,5-triazinane-2,4,6-trione] | 650 | 300 | 53.4

The next lines start with the values.

Row | EC50 (TrkA) [nM] | EC50 (TrkB) [nM] | % of parent compound metabolized after 120 min [1] [%] | Structure (SMILES)
7 | 40 | 110 | 29.6 | Cc1cccc(-n2c(=O)[nH]c(=O)n(-c3ccc(Oc4ccccc4)c(CN4CCCC4=O)c3)c2=O)c1 [Example 15, 1-(3-methylphenyl)-3-{3-[(2-oxopyrrolidin-1-yl)methyl]-4-phenoxyphenyl}-1,3,5-triazinane-2,4,6-trione]
8 | 210 | 150 | 82.8 | Cc1cccc(-n2c(=O)[nH]c(=O)n(-c3ccc(Oc4ccccc4)c(OCC(=O)N4CCCC4)c3)c2=O)c1 [Example 9, 1-(3-methylphenyl)-3-{3-[2-oxo-2-(pyrrolidin-1-yl)ethoxy]-4-phenoxyphenyl}-1,3,5-triazinane-2,4,6-trione]
9 | 280 | 320 | 99.8 | Cc1cccc(-n2c(=O)[nH]c(=O)n(-c3ccc(Oc4ccccc4)c(OCC(=O)N4CCCCC4)c3)c2=O)c1 [Example 10, 1-(3-methylphenyl)-3-{3-[2-oxo-2-(piperidin-1-yl)ethoxy]-4-phenoxyphenyl}-1,3,5-triazinane-2,4,6-trione]
10 | 130 | 90 | 48.8 | CCc1cc(-n2c(=O)[nH]c(=O)n(-c3cccc(C)c3)c2=O)ccc1Oc1ccccc1 [Example 7, 1-(3-ethyl-4-phenoxyphenyl)-3-(3-methylphenyl)-1,3,5-triazinane-2,4,6-trione]
11 | 410 | 220 |  | Cc1cccc(-n2c(=O)[nH]c(=O)n(-c3ccc(Oc4ccccc4)c(OCC(=O)N4CCC4)c3)c2=O)c1 [Example 12, 1-{3-[2-(azetidin-1-yl)-2-oxoethoxy]-4-phenoxyphenyl}-3-(3-methylphenyl)-1,3,5-triazinane-2,4,6-trione]
12 | 270 | 180 | 57.3 | Cc1cccc(-n2c(=O)[nH]c(=O)n(-c3ccc(Oc4ccccc4)c(OCC(=O)N4CCOCC4)c3)c2=O)c1 [Example 11, 1-(3-methylphenyl)-3-{3-[2-(morpholin-4-yl)-2-oxoethoxy]-4-phenoxyphenyl}-1,3,5-triazinane-2,4,6-trione]
